Test: Stability of aqueous solution on standing under ambient conditions (loss of inhibitory activity)
Assay type: physicochemical
Settings: 1 mg per ml, pH of about 8, standing for as little as 30 minutes

Compound: C[C@H](CS)C(=O)N1CCC[C@H]1C(=O)O [SQ14225, D-3-mercapto-2-methylpropanoyl-L-proline]
- activity of fresh aqueous solution upon standing: substantially less active
